# Measurements: patent US20220387358A1, “CERAMIDE ANALOG SACLAC MODULATES SPHINGOLIPID LEVELS AND MCL-1 SPLICING TO INDUCE APOPTOSIS IN ACUTE MYELOID LEUKEMIA” (University of Virginia Patent Foundation, priority 2019, published 2022)
# Assays:
# OCI-AML2 cells [1] = assay: Western blot of SF3B1, Mcl-1S and Mcl-1L protein expression; assay type: cell-based, human; conditions: 24 hours
# Method: Cells were plated at 2.5×10^5 cells per ml in 6-well plates and treated with drug, vehicle or siRNA at the indicated doses and time points. Cells were harvested, washed with PBS and lysed prior to preparation of protein extracts for western blotting.
# More particularly, cells were lysed with RIPA buffer (#R0278, Sigma, St. Louis, Mo., United States of America) containing phosphatase inhibitor cocktails 2 and 3 (Sigma #P5726, #P0044) and protease inhibitor cocktail (#P8340, Sigma, St. Louis, Mo., United States of America). Protein was quantified using a bicinchoninic acid (BCA) protein assay kit (#23225, Pierce, Waltham, Mass., United States of America). Samples were resolved on a Bolt 4-12% SDS-PAGE gel (#NW00082, ThermoFisher Scientific, Waltham, Mass., United States of America) and transferred to PVDF membrane (#170-4274, Bio-Rad Laboratories, Hercules, Calif., United States of America). Antibodies were obtained from Cell Signaling Technology (Danvers, Mass., United States of America) unless indicated otherwise. Primary antibodies used were: Mcl-1 (#5453, RRID #AB 10694494), SF3B1 (#14434, RRID #AB 2798479), β-actin (#3700, RRID #AB_2242334) and AC (BD Biosciences #612302 (San Jose, California, United States of America), RRID #AB_399617). Secondary antibodies used were HRP-linked goat anti-mouse (#7076, RRID #AB_330924) or goat anti-rabbit IgG (#7074, RRID # AB_2099233). Clarity Max Western ECL Substrate (#1705062, Bio-Rad Laboratories, Hercules, Calif., United States of America) was added to visualize relative protein expression by chemiluminescence using the Bio-Rad ChemiDoc MP imaging system (Bio-Rad Laboratories, Hercules, Calif., United States of America). Quantification was done using Bio-Rad ImageLab 6.0.1 software (Bio-Rad Laboratories, Hercules, Calif., United States of America). For quantification, bands were normalized to β-actin as a loading control.
# [2] = tested on: MCL-1S transcript in OCI-AML2 cells; assay: RT-qPCR of MCL-1S transcript; assay type: cell-based, human; conditions: 5 μM SACLAC; 6 hours
# Method: Cells were seeded at 2.5×10^5 cells per ml in 6-well plates and treated with DMSO or SACLAC for six hours. Cells were harvested and resuspended in TRIzol reagent (#15596026, Invitrogen, Carlsbad, Calif., United States of America). RNA was isolated using Direct-zol RNA Miniprep Plus (#R2072, Zymo Research, Irvine, Calif., United States of America) according to the manufacturer's protocol. RNA was quantified using the Take3 microplate and the pre-programmed RNA quantification protocol on the Gen5 software for the Cytation 3 plate reader (BioTek, Winooski, Vt., United States of America). DNase treatment and reverse transcription were done using the iScript gDNA Clear cDNA Synthesis Kit (#1725035, Bio-Rad Laboratories, Hercules, Calif., United States of America) in accordance with the manufacturer's protocol. The qPCR reaction contained iTaq Universal SYBR Green (#1725122, Bio-Rad Laboratories, Hercules, Calif., United States of America), 140 ng cDNA and primers specific for HPRT (#100-25636, Bio-Rad Laboratories, Hercules, Calif., United States of America), B2M (#100-25636, Bio-Rad Laboratories, Hercules, Calif., United States of America) and MCL-1S (Eurofins (Luxembourg); forward, 5′-[…]-3′ (SEQ ID NO: 1) and reverse, 5′-[…]-3′ (SEQ ID NO: 2)) (38). This primer pair specifically amplifies Mcl-1 transcript variant 2 (MCL-1S) according to BLAST analysis. […]
# sphingosine in the liver = assay: Sphingosine in the liver after SACLAC administration; assay type: in vivo, Swiss Webster mice
# OCI-AML2 cells [3] = assay: Caspase 3/7 activation; assay type: cell-based, human; conditions: increasing doses; 24 hours
# Method: Apoptosis in cell lines was assessed after treating 2.5×10^5 cells per ml with drug or vehicle in a 48-well plate for the indicated time points and doses. Primary human AML cells were pre-incubated with SFEM for 48 hours before plating 2×10^5 cells in 24-well plates for the indicated times point and doses. Samples were stained using the Muse Annexin V & Dead Cell Kit (Millipore #MCH100105). Change in mitochondrial membrane potential in cell lines was measured with the Muse® MitoPotential Kit (#MCH100110, MilliporeSigma, Burlington, Mass., United States of America). Caspase activation was measured using the Muse® Caspase 3/7 Assay Kit (#MCH100108, MilliporeSigma, Burlington, Mass., United States of America). For rescue experiments, cells were plated at 2.5×10^4 well in a 96-well plate 24 hours after electroporation. Cells were treated with DMSO or […] for 48 hours and apoptosis was detected as stated above. All kits were used according to manufacturer's protocol. Cells were then analyzed using the Muse® Cell Analyzer (MilliporeSigma, Burlington, Massachusetts, United States of America) (35,36). Experiments included positive and negative controls for proper analysis.
# OCI-AML2 cells [4] = assay: Apoptosis by flow cytometry (Annexin V); assay type: cell-based, human; conditions: SACLAC 5 μM
# Method: Apoptosis in cell lines was assessed after treating 2.5×10^5 cells per ml with drug or vehicle in a 48-well plate for the indicated time points and doses. Primary human AML cells were pre-incubated with SFEM for 48 hours before plating 2×10^5 cells in 24-well plates for the indicated times point and doses. Samples were stained using the Muse Annexin V & Dead Cell Kit (Millipore #MCH100105). Change in mitochondrial membrane potential in cell lines was measured with the Muse® MitoPotential Kit (#MCH100110, MilliporeSigma, Burlington, Mass., United States of America). Caspase activation was measured using the Muse® Caspase 3/7 Assay Kit (#MCH100108, MilliporeSigma, Burlington, Mass., United States of America). For rescue experiments, cells were plated at 2.5×10^4 well in a 96-well plate 24 hours after electroporation. Cells were treated with DMSO or SACLAC for 48 hours and apoptosis was detected as stated above. All kits were used according to manufacturer's protocol. Cells were then analyzed using the Muse® Cell Analyzer (MilliporeSigma, Burlington, Massachusetts, United States of America) (35,36). Experiments included positive and negative controls for proper analysis.
compound,measurement,setting,value
"CCCCCCCCCCCCCCC[C@@H](O)[C@H](CO)NC(=O)CCl [SACLAC, N-[(2S,3R)-1,3-dihydroxyoctadecan-2-yl]2-chloroacetamide]",SF3B1 protein expression,OCI-AML2 cells [1]; SACLAC,reduced
same,splicing factor SRSF1,OCI-AML2 cells [1]; SACLAC,not affected
same,increase in the ratio of Mcl-1S to Mcl-1L,OCI-AML2 cells [1]; increasing doses of SACLAC,3 fold
same,upregulation of the Mcl-1S isoform,OCI-AML2 cells [1]; increasing doses of SACLAC,10 fold
same,MCL-1S transcript level,[2],Increased
same,time that liver sphingosine levels were reduced after treatment,sphingosine in the liver,at least 6 hours
same,caspase 3/7 activation,OCI-AML2 cells [3],dose-dependent caspase activation
same,apoptosis,OCI-AML2 cells [4]; 12 hours,79%
same,apoptosis,OCI-AML2 cells [4]; 24 hours,nearly all cells undergoing apoptosis
